Results published in paper PMC8945686, “Anticancer Effects with Molecular Docking Confirmation of Newly Synthesized Isatin Sulfonamide Molecular Hybrid Derivatives against Hepatic Cancer Cell Lines” (Biomedicines, 2022).
Where “and” joins values, the source holds several entries; their conditions need not be identical. Equal values may be shown once. Marks after values point to notes of the source that are not given here.

Columns and labels:
[1] = system: urokinase Plasminogen Activator (uPA); assay: uPA level in HepG2 cell lysate (ELISA); format: cell-based, human; settings: HepG2 treated at IC50, 48 h
Description: (§1) As previously described, with little modification, HepG2 cells were cultured in T25 flask until they reached 30% confluency. […] After treatment, cells were washed by PBS, trypsinized and centrifuged at 10,000 rpm. The formed pellets were washed twice with PBS and lysed in 1 mL ice-cold radio immunoprecipitation assay (RIPA) lysis buffer (50 mM Tris-HCl, pH 8.0, 150 mM NaCl, 1% Triton X-100, 0.5% sodium deoxycholate, 0.1% sodium dodecyl sulfate) and kept on ice for 20 min. Then, the mixture was centrifuged at 15,000 rpm for 15 min to remove any cell debris. The cell lysate was aliquoted and stored at −80 °C for determination of protein using Pierce BCA Protein Assay Kit (Thermo Fisher Scientific, Waltham/Boston, USA) according to manufacturer’s recommendations and determination of other biochemical parameters including EGFR, urokinase Plasminogen Activator (uPA), B-Cell Lymphoma-2 (Bcl-2), heparanase, and oxidative stress markers (glutathione; GSH and malonaldehyde; MDA).
(§2) Levels of EGFR [37] and heparanase in cell lysate were investigated using commercially available enzyme-linked immunosorbent assay (ELISA) kits supplied by Abcam (Cat. No. ab269558, ab256401, respectively). Levels of uPA [39] were measured using ELISA kit supplied by Creative Diagnostics (New York, USA, Cat. No. DEIA1630). Bcl-2 levels were determined using ELISA kit supplied by Zymed Laboratories, Carlsbad, California (Cat. No. 99-0042). Briefly, standards and samples were added to corresponding 96-well plate coated with suitable antibody. After the washing step, biotinylated anti-human antibody was added to each well. After washing away unbound biotinylated antibody, horseradish peroxidase (HRP)-conjugated streptavidin was pipetted into each well. A peroxidase substrate solution was added to all wells, after washing, and the color developed was proportionate to the amount of EGFR bound. Finally, the stop solution was added and the color intensity was measured at 450 nm.

[2] = system: HepG2 cells; assay: MTT cytotoxicity assay on HepG2 cells; format: cell-based; settings: Homo sapiens; for cytotoxicity at 100 ppm: 48 h, 100 p.p.m (μg/mL), read-out: % Death Rate at 100 p.p.m (μg/mL) HepG2; for IC50: HepG2, 48 h
Description: (§3) MTT-based cell viability assay was carried out to evaluate the antiproliferation potential of the target compounds on HCC cell lines (HepG2 and Huh7). The half maximal inhibitory concentration (IC50) values were calculated against DMSO non-treated HepG2 cells (negative control) and Dox-treated HepG2 cells (positive control). The assay was conducted using 3-(4, 5-di-MethylThiazol-2-yl)-2,5-diphenyl Tetrazolium bromide (MTT) to test cell viability, according to the method described by Mosmann with minor changes. The yellow MTT is reduced in the viable cells to purple formazan. The insoluble formazan is solubilized by DMSO to colored solution measured spectrophotometrically. Briefly, cells were seeded in a 96-well plate at density of 1 × 10^4 cells/well for 24 h in 5% CO2 incubator at 37 °C to allow their adherence. […] After incubation, 20 μL of a 5 mg/mL MTT solution were mixed with the contents of each well, and the plate was incubated for another 4 h. Then, the medium was suctioned, and the wells were washed with PBS. After 2 h of drying, 200 μL of DMSO was added to each well. The plate was set on a shaker to dissolve the formazan crystals. Then, the absorbance was measured spectrophotometrically at 570 nm with a reference wavelength of 630 nm using ELX800 UV universal microplate reader (BioTek Instruments Inc., VT, Santa Clara, CA, USA).
(§4) All experiment conditions were tested in three replicates. The % cell viability was calculated from the following equation: (mean absorbance of treated sample/mean absorbance of negative control sample) × 100. The % death rate = 100 -% cell viability, and the inhibitory concentration of 50% (IC50) was measured from the exponential curve of viability against concentration (dose–response curve).

[3] = system: B-Cell Lymphoma-2 (Bcl-2); assay: Bcl-2 level in HepG2 cell lysate (ELISA); format: cell-based, human; settings: HepG2 treated at IC50, 48 h
Description: as §1, §2

[4] = system: malonaldehyde (MDA); assay: MDA level in HepG2 cell lysate (TBA method); format: cell-based, human; settings: HepG2 treated at IC50, 48 h
Description: as §1
Levels of MDA, the marker of lipid peroxidation, were measured by thiobarbituric acid (TBA) method. TBA reacts with MDA in an acidic medium at temperature of 95 °C for 30 min to form colored thiobarbituric acid reactive (TBAR) product, the absorbance of which was measured at 534 nm. The MDA kit was purchased from Biodiagnostics, Cairo, Egypt.

[5] = system: Huh7 cells; assay: MTT cytotoxicity assay on Huh7 cells; format: cell-based, human; settings: for % Death Rate at 100 p.p.m (μg/mL) Huh7: 48 h; for IC50: Homo sapiens, Huh-7, 48 h
Description: as §3, §4

[6] = system: HepG2 cells; assay: Cell cycle analysis by flow cytometry (PI staining); format: cell-based, human; settings: for %Cell Cycle Arrest/Phase %G0-G1 / %Cell Cycle Arrest/Phase %G2-M / %Cell Cycle Arrest/Phase %S / %Cell Cycle Arrest/Phase %pre-G1: HepG2, 5 µM, 48 h; for G2-M arrest, fold higher compared to the negative control: HepG2, negative control 7.1%
Description: In 6-well plate, HepG2 (1 × 10^5 cells per well) were treated with either (0.1% DMSO) vehicle or 5 μM of 3a, 4b, and 4c compounds. After 48 h incubation, cells were harvested and fixed for 12 h using ice-cold 70% ethanol at 4 °C. Ethanol was removed and cells were washed by PBS and incubated for 30 min at 37 °C in 0.5 mL of PBS containing 1 mg/mL RNase. Then, cells were stained for 30 min with PI in the dark and the DNA content was determined using flow cytometer.

SMILES	uPA level in cell lysate ([1]; listed as Dox)	uPA level in cell lysate ([1]; listed as Positive)	cytotoxicity at 100 ppm [2]	IC50 [2]	Bcl-2 level in cell lysate [3]	MDA level in cell lysate ([4]; listed as Dox)	MDA level in cell lysate ([4]; listed as Positive)	% Death Rate at 100 p.p.m (μg/mL) Huh7 [5]	IC50 [5]	%Cell Cycle Arrest/Phase %G0-G1 [6]	%Cell Cycle Arrest/Phase %G2-M [6]	%Cell Cycle Arrest/Phase %S [6]	%Cell Cycle Arrest/Phase %pre-G1 [6]	uPA level in cell lysate [1]	MDA level in cell lysate [4]	G2-M arrest, fold higher compared to the negative control [6]
COc1cccc2c1C(=O)c1c(O)c3c(c(O)c1C2=O)C[C@@](O)(C(=O)CO)C[C@@H]3O[C@H]1C[C@H](N)[C@H](O)[C@H](C)O1 [Doxorubicin, reference compound]	1244 ± 18 nmol/mg protein	1244 ± 18 ^a* nmol/mg protein	100%	21.6 ± 0.81 µM	1.7 ± 0.10 ^a* nmol/mg protein	18.5 ± 1.5 µmol/mg protein	18.5 ± 1.5 ^a* µmol/mg protein	100%	11.6 ± 0.9 µM	29.74%	39%	31.26%	42.38%	–	–	–
Cc1ccc(C(=O)CC2(O)C(=O)Nc3ccc(S(=O)(=O)N4CCCCC4)cc32)cc1 (stereo not drawn) [Compound 3a, 3-hydroxy-3-(2-oxo-2-(p-tolyl)ethyl)-5-(piperidin-1-ylsulfonyl)indolin-2-one]	–	–	70.1%	~16.8 µM	4.2 ± 0.1 nmol/mg protein and 4.2 ± 0.10 ^a*^,b* nmol/mg protein	–	–	100 * %	40 ± 2.2 µM	31.57%	44.85%	23.58%	46.29%	1258 ± 15 nmol/mg protein and 1258 ± 15 ^a* nmol/mg protein	2.0 ± 0.5 µmol/mg protein and 2.0 ± 0.5 ^a*^,b* µmol/mg protein	6.32 fold
CC(=O)Nc1ccc(C(=O)C=C2C(=O)Nc3ccc(S(=O)(=O)N4CCCCC4)cc32)cc1 [Compound 4b, N-(4-(2-(2-oxo-5-(piperidin-1-ylsulfonyl)indolin-3-ylidene)acetyl)phenyl)acetamide]	–	–	94.2%	~44.7 µM	2.5 ± 0.04 nmol/mg protein and 2.5 ± 0.04 ^a,b* nmol/mg protein	–	–	76.00 * %	53 ± 3 µM	41.25%	5.49%	53.26%	28.14%	1916 ± 40 nmol/mg protein and 1916 ± 40 ^a*^,b* nmol/mg protein	3.7 ± 0.4 µmol/mg protein and 3.7 ± 0.4 ^a*^,b* µmol/mg protein	–
CC(=O)Nc1cccc(C(=O)C=C2C(=O)Nc3ccc(S(=O)(=O)N4CCCCC4)cc32)c1 [Compound 4c, N-(3-(2-(2-oxo-5-(piperidin-1-ylsulfonyl)indolin-3-ylidene)acetyl)phenyl)acetamide]	–	–	95.6%	~39.7 µM	3.6 ± 0.11 nmol/mg protein and 3.6 ± 0.11 ^a*^,b* nmol/mg protein	–	–	75.60 * %	35 ± 1.9 µM	36.44%	37.62%	25.94%	32.02%	1729 ± 38 nmol/mg protein and 1729 ± 38 ^a*^,b* nmol/mg protein	14.5 ± 1.4 µmol/mg protein	5.30 fold
